According to publication PMC5485972, “N-Caffeoyltryptamine, a Potent Anti-Inflammatory Phenolic Amide, Suppressed MCP-1 Expression in LPS-stimulated THP-1 Cells and Rats Fed a High-Fat Diet” (International Journal of Molecular Sciences, 2017):

Assays:
[1] = target: T1, p38 MAP kinase β (Homo sapiens, UniProt Q15759); assay: Promega CMGC-1 kinase selectivity profiling system, ADP-Glo kinase assay; format: biochemical
T1 construct: gene MAPK11

[2] = target: T2, p38 MAP kinase α (Homo sapiens, UniProt Q16539); assay: as above; format: biochemical
T2 construct: gene MAPK14
T2 sequence (Q16539 2-360): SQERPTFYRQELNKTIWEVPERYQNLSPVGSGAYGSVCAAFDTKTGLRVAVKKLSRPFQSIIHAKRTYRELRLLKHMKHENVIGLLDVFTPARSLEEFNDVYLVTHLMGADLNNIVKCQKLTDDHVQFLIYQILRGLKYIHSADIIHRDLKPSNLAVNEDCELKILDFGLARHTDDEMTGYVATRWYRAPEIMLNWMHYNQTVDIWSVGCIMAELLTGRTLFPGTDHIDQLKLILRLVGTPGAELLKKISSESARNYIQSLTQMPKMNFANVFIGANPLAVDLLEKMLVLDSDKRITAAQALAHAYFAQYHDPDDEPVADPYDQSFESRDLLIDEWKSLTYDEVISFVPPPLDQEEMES

T1 sequence (Q15759 whole entry): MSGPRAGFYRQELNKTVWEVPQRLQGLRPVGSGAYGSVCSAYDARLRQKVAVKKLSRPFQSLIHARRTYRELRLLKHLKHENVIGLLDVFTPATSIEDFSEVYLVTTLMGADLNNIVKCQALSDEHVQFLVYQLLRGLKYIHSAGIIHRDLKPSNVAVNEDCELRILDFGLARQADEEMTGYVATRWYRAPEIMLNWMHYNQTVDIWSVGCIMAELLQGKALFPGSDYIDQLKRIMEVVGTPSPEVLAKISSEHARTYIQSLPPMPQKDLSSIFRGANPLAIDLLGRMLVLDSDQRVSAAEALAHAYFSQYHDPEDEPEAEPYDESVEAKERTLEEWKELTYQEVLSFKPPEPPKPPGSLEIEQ

- IC50 [1]: 18.3 µM
- IC50 [2]: 16.7 µM
Compound: O=C(/C=C/c1ccc(O)c(O)c1)NCCc1c[nH]c2ccccc12 [N-caffeoyltryptamine]
